Laboratory results: patent US20120270237A9, “METHODS FOR THE IDENTIFICATION OF KINASE INTERACTING MOLECULES AND FOR THE PURIFICATION OF KINASE PROTEINS” (Cellzone AG, priority 2009, published 2012)

How the values were obtained:
Assay in all cases: Kinobeads competition binding, HeLa Placenta lysate mix
Parameters in all cases: capturing and identification of kinases from mixed HeLa placenta lysates; endogenous in cells; host or cells: mixed lysate of HeLa cells and placenta tissue
Details in all cases: 10 μM free compound
MAP2K5 = biological target: T1, MAP2K5 (Homo sapiens, UniProt Q13163)
T1 sequence (Q13163 1-448): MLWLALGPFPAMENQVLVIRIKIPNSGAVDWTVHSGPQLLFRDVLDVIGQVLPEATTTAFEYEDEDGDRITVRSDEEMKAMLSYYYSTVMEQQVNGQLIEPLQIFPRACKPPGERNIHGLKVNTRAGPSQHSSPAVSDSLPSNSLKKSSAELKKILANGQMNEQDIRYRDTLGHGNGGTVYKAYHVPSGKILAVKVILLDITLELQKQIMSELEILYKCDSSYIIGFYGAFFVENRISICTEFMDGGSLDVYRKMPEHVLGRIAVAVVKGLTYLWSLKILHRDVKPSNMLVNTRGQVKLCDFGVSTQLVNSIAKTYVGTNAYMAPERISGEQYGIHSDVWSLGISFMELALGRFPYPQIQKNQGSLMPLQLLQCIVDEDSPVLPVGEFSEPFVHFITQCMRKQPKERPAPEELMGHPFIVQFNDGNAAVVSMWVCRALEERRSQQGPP
Procedure: (§1) To one aliquot of cell lysate 10 μM of the free compound (FIG. 3, CZC31326) was added and allowed to bind to proteins in the lysate. Then the affinity matrix with the immobilized compound was added to capture proteins that were not interacting with the previously added free compound. Beads were separated from the lysate and bead bound proteins were eluted in SDS sample buffer and subsequently separated by SDS-Polyacrylamide gel electrophoresis (FIG. 10). Suitable gel bands were cut out and subjected to in-gel proteolytic digestion with trypsin. The second lysate aliquot was processed identically, however no free compound was added (DMSO solvent control). Peptides originating from samples 1 and 2 were labeled with iTRAQ reagents (iTRAQ 114 and iTRAQ 117) and the combined samples were analyzed with a nano-flow liquid chromatography system coupled online to a tandem mass spectrometer (LC-MS/MS) experiment followed by iTRAQ reporter ion quantification in the MS/MS spectra as described in Example 2.

FES = FES (Homo sapiens, UniProt P07332)
Sequence of FES (P07332 whole entry): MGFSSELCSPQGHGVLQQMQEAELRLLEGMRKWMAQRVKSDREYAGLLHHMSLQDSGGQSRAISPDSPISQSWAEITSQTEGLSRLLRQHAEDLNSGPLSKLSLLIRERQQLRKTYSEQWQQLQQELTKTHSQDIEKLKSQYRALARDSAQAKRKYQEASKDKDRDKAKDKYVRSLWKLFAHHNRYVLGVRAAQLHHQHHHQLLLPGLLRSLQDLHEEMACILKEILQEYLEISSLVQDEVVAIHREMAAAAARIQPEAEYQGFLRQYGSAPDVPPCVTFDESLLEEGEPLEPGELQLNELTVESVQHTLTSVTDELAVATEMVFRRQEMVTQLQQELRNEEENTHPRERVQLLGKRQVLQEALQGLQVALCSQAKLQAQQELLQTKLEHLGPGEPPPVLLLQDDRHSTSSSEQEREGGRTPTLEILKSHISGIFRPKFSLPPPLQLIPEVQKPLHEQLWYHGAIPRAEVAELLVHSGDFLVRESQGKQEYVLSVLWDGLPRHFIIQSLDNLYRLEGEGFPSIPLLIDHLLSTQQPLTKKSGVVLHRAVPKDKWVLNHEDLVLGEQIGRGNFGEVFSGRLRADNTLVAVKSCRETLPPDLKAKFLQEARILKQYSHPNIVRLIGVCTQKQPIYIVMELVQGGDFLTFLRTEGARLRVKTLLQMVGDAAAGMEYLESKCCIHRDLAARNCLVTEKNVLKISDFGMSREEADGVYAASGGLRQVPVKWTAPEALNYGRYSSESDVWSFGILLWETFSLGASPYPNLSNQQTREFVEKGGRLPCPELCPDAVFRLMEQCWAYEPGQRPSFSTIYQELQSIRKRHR
Procedure: as §1

Erk2 = Erk2 (Homo sapiens, UniProt P28482)
Sequence of Erk2 (P28482 whole entry): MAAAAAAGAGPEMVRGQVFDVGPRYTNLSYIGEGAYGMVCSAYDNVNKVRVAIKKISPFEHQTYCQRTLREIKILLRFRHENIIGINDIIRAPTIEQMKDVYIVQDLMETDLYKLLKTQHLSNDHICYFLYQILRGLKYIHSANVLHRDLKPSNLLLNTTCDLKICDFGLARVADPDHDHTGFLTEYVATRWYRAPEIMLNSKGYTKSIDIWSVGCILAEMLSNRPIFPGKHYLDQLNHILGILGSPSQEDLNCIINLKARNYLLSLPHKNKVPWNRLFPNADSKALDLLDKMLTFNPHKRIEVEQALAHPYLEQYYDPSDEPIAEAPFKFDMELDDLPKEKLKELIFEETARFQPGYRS
Procedure: as §1

GAK = biological target: T2, GAK (Homo sapiens, UniProt O14976)
T2 sequence (O14976 1-1311): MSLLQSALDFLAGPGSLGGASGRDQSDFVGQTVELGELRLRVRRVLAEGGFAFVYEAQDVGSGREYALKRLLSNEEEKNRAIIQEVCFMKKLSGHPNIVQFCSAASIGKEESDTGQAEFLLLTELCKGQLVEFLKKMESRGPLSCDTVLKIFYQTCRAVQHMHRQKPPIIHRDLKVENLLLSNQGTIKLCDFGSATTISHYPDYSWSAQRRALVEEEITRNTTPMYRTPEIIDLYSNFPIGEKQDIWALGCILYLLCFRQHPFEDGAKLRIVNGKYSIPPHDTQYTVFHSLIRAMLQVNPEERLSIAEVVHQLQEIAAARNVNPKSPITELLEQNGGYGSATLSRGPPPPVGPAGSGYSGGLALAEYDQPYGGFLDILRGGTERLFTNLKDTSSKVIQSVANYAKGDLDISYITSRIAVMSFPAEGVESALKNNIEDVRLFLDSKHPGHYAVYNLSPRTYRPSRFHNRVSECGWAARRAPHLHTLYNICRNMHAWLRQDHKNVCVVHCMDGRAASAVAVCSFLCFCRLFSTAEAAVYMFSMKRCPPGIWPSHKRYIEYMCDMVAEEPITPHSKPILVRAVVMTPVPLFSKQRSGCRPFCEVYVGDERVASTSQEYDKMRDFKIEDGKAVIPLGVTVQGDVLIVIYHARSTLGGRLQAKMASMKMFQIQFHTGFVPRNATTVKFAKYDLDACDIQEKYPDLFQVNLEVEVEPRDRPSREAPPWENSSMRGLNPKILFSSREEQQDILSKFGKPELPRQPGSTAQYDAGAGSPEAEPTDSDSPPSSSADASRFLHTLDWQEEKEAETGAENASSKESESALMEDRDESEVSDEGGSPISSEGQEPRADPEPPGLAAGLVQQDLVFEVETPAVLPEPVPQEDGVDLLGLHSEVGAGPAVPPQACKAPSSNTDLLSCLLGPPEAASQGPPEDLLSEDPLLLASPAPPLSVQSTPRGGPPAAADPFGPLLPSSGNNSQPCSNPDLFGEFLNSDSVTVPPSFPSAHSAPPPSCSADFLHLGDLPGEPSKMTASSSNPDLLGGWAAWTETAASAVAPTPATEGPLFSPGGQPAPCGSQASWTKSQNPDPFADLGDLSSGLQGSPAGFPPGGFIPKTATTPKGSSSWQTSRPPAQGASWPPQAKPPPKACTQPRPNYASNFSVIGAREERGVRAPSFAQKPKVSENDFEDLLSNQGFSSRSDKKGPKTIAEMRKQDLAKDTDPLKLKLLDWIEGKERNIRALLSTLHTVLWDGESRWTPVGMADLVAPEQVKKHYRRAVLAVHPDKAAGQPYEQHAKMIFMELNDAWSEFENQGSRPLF
Procedure: as §1

MARK3 = MARK3 (Homo sapiens, UniProt P27448)
Sequence of MARK3 (P27448 whole entry): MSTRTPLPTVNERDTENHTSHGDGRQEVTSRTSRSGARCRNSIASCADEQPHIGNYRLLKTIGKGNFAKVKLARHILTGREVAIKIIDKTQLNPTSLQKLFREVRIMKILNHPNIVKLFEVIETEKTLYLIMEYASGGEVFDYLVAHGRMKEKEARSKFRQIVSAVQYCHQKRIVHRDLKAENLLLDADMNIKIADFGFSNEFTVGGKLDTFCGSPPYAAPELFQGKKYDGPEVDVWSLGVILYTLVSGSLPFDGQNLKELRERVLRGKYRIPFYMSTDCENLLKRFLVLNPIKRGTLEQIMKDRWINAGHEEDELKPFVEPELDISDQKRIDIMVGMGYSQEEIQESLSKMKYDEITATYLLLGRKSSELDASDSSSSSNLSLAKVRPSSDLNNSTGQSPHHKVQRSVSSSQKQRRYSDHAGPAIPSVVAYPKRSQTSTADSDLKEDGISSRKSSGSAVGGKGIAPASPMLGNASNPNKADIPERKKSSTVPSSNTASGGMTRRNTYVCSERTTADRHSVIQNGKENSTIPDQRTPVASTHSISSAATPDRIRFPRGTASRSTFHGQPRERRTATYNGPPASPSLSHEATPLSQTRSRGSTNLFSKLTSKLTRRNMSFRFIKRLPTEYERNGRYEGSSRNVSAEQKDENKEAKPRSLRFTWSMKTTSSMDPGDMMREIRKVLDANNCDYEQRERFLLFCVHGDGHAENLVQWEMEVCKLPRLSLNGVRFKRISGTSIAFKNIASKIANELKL
Procedure: as §1

MLK3 = MLK3 (Homo sapiens, UniProt Q16584)
Sequence of MLK3 (Q16584 whole entry): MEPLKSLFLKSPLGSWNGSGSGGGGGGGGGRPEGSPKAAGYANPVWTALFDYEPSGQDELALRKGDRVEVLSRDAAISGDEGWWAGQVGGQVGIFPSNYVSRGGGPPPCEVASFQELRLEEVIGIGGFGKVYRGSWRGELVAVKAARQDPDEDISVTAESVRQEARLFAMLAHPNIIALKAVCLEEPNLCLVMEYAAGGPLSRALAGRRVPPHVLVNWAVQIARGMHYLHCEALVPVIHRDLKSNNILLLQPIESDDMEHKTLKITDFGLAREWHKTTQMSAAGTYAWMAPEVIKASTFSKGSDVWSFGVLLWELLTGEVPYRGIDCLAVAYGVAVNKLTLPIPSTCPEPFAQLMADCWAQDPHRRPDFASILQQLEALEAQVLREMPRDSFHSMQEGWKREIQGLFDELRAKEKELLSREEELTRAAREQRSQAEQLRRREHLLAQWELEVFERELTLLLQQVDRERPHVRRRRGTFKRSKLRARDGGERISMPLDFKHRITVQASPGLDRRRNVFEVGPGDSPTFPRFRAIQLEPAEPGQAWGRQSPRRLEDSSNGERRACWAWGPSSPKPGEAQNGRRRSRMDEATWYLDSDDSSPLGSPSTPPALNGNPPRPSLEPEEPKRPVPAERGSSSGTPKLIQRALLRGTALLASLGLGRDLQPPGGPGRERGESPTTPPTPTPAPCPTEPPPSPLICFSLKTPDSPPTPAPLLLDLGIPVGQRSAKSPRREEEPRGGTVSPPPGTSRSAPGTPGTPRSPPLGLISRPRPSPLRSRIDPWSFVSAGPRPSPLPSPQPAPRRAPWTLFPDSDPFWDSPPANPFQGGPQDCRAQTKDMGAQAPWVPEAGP
Procedure: as §1

CS(=O)(=O)Nc1ccccc1Nc1nc(Nc2cccc(OCCN)c2)ncc1Cl [CZC31326, N-(2-(2-(3-(2-aminoethoxy)phenylamino)-5-chloropyrimidin-4-ylamino)phenyl)methanesulfonamide]
inhibition at 10 µM (MAP2K5): 90.4% | inhibition at 10 µM (FES): 95.1% | inhibition at 10 µM (Erk2): 68.5% | inhibition at 10 µM (GAK): 93.6% | inhibition at 10 µM (MARK3): 93.1% | Competition % (MLK3): 93.8%
